Laboratory results taken from ChEMBL document CHEMBL1131279, “Endothiopeptide inhibitors of HIV-1 protease” (Bioorg Med Chem Lett, 1998).
Starred links: 1 amine or outer side, 2 acyl side, 3 side chain; linkers in the order of their positions; H or OH if unused. Non-standard residues stand in square brackets, D forms with d. Residues, ends and D or L forms follow the SMILES beside them. *: point of attachment. X2 = O=C([C@H](Cc1ccccc1)NC(=S)[C@H](Cc1ccccc1)N[*:1])[*:2]; X3 = O=C([C@H](Cc1ccccc1)CC(O)[C@H](Cc1ccccc1)N[*:1])[*:2]; X4 = CC(C)[C@H](/N=C(\S)[C@H](Cc1ccccc1)N[*:1])C(=O)[*:2]; AlaΨ(CSNH)Ala = C[C@H](NC(=S)[C@H](C)N[*:1])C(=O)[*:2]; X5 = C[C@H](N[*:1])C(=S)N[C@@H](Cc1ccccc1)C(=O)[*:2]; X1 = COC(=O)[C@@H](NC(=S)[C@@H](N*)C(C)C)C(C)C; Cbz = O=C(OCc1ccccc1)*; Boc = CC(C)(C)OC(=O)*

Legend:
[1] = biological target: T1, Human immunodeficiency virus type 1 protease (Human immunodeficiency virus 1, UniProt Q72874); assay: Inhibitory activity against HIV-1 Protease was determined
[2] = biological target: T1, Human immunodeficiency virus type 1 protease; assay: Binding affinity was evaluated for competitive inhibition of HIV-1 Protease

Row | Compound | IC50 [1] [µM] | Ki [2] [µM] | Ki [1] [µM]
1 | COC(=O)[C@@H](NC(=S)[C@@H](NC(=O)[C@H](Cc1ccccc1)NC(=O)[C@H](Cc1ccccc1)NC(=O)[C@H](C)NC(=O)[C@H](C)NC(=O)OC(C)(C)C)C(C)C)C(C)C (Boc-AAFF-X1) | 4.5 | 3.4 | –
2 | COC(=O)[C@@H](NC(=O)[C@@H](/N=C(\S)[C@H](Cc1ccccc1)NC(=O)[C@H](Cc1ccccc1)NC(=O)[C@H](C)NC(=O)[C@H](C)NC(=O)OC(C)(C)C)C(C)C)C(C)C (Boc-AAF[X4]V-OMe) | > 200 | – | –
3 | COC(=O)[C@@H](NC(=O)[C@@H](NC(=O)[C@H](Cc1ccccc1)NC(=S)[C@H](Cc1ccccc1)NC(=O)[C@H](C)NC(=O)[C@H](C)NC(=O)OC(C)(C)C)C(C)C)C(C)C (Boc-AA[X2]VV-OMe) | 18 | – | –
4 | COC(=O)[C@@H](NC(=O)[C@@H](NC(=O)[C@H](Cc1ccccc1)NC(=O)[C@H](Cc1ccccc1)NC(=S)[C@H](C)NC(=O)[C@H](C)NC(=O)OC(C)(C)C)C(C)C)C(C)C (Boc-A[X5]FVV-OMe) | 51 | – | –
5 | COC(=O)[C@@H](NC(=O)[C@@H](NC(=O)[C@H](Cc1ccccc1)NC(=O)[C@H](Cc1ccccc1)NC(=O)[C@H](C)/N=C(\S)[C@H](C)NC(=O)OC(C)(C)C)C(C)C)C(C)C (Boc-[AlaΨ(CSNH)Ala]FFVV-OMe) | 160 | – | –
6 | COC(=O)[C@@H](NC(=O)[C@@H](NC(=O)[C@H](Cc1ccccc1)CC(O)[C@H](Cc1ccccc1)NC(=O)[C@H](C)NC(=O)[C@H](C)NC(=O)OCc1ccccc1)C(C)C)C(C)C (some centres not stated) (Cbz-AA[X3]VV-OMe) | – | – | 0.0004
